Measured values published in article PMC8459971, “Evaluation of the hepatotoxicity of the novel GPR40 (FFAR1) agonist CPL207280 in the rat and monkey” (PLoS ONE, 2021).
Values joined by “and” are separate entries in the source; they are usually repeats but may differ in a detail not shown here. Identical values can stand only once.

Legend:
NTCP = target: T1, NTCP (Homo sapiens, UniProt Q14973); experiment: Uptake transporter inhibition assay, NTCP; format: cell-based; conditions: NTCP; reference inhibitor 300 µM
T1 construct: expressed in transfected cells; host or cells: HEK cells
T1 sequence (Q14973 1-349): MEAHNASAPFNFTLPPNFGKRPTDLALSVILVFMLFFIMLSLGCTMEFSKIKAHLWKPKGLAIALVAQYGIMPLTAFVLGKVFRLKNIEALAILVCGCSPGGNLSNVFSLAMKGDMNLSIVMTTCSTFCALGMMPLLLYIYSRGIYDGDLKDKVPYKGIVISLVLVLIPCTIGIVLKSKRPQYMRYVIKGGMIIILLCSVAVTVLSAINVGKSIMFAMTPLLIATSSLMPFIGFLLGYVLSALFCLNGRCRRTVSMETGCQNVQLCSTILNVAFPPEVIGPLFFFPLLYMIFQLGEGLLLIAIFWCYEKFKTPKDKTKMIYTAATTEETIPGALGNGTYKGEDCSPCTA
Method: For the uptake transporter inhibition assay, cells were washed twice with 100 μL of the appropriate buffer (HK, pH 7.4) for OATP1B1, followed by HBSS (pH 7.4) for (NTCP, OAT1, OAT2v1, OATP1A2, and OATP1B3). Uptake experiments were carried out at 37 ± 1°C in 50 μL of the respective buffer containing the probe substrate and the compound or solvent.

OATP1A2 = OATP1A2 (Homo sapiens, UniProt P46721); experiment: Uptake transporter inhibition assay, OATP1A2; conditions: OATP1A2; reference inhibitor 500 µM;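 note: cellular uptake of a radiolabeled probe substrate in HBSS pH 7.4 at 37 °C with test compound or solvent, measured by liquid scintillation counting of cell lysates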
OATP1A2, sequence (P46721 whole entry): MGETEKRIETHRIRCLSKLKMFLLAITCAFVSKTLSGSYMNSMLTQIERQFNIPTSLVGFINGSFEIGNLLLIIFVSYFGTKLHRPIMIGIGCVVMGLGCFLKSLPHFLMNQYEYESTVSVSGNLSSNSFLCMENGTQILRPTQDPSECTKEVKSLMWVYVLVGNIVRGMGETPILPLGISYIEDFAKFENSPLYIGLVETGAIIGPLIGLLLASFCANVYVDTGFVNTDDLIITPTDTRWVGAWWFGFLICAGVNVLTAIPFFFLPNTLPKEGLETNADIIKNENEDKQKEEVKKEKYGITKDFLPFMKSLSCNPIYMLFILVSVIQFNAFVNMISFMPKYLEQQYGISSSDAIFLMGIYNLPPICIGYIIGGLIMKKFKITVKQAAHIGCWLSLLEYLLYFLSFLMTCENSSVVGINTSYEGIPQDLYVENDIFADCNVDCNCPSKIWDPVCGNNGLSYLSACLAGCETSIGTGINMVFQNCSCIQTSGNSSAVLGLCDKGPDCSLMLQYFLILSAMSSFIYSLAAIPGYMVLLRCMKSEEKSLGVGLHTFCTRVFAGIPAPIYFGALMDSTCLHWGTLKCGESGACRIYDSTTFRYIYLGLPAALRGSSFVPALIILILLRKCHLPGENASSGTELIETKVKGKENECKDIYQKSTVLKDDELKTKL
Method: For the uptake transporter inhibition assay, cells were washed twice with 100 μL of the appropriate buffer (HK, pH 7.4) for OATP1B1, followed by HBSS (pH 7.4) for (NTCP, OAT1, OAT2v1, OATP1A2, and OATP1B3). Uptake experiments were carried out at 37 ± 1°C in 50 μL of the respective buffer containing the probe substrate and the compound or solvent. […] After the experiment, cells were washed twice with 100 μL of cold appropriate buffer and lysed with 50 μL of 0.1 M NaOH. Radiolabeled probe substrate transport was determined by measuring an aliquot (35 μL) from each well for liquid scintillation counting.

| Compound | Accumulation (counts per minute; CPM) HEK293-NTCP (NTCP) | Accumulation (counts per minute; CPM) HEK293FT-MOCK (NTCP) | Accumulation (counts per minute; CPM) HEK293FT-MOCK (OATP1A2) | Accumulation (counts per minute; CPM) HEK293FT-OATP1A2 (OATP1A2) |
| --- | --- | --- | --- | --- |
| C[C@H](CCC(=O)NCCS(=O)(=O)O)[C@H]1CC[C@H]2[C@@H]3[C@H](O)C[C@@H]4C[C@H](O)CC[C@]4(C)[C@H]3CC[C@]12C [TCDC] | 257 CPM and 289 CPM and 184 CPM and 282 CPM | 24 CPM and 25 CPM and 21 CPM and 27 CPM |  |  |
| O=C1OC(c2ccc(O)c(S(=O)(=O)O)c2)(c2ccc(O)c(S(=O)(=O)O)c2)c2c(Br)c(Br)c(Br)c(Br)c21 [Sulfobromophthalein] |  |  | 79 CPM and 76 CPM and 86 CPM | 880 CPM and 817 CPM and 881 CPM and 862 CPM |
